Assay results as given in patent publication US20240016814A1, “METHOD OF TREATING HYPERTENSION” (Cipla Limited, priority 2017, published 2024).
Values joined by “and” are separate entries in the source; they are usually repeats but may differ in a detail not shown here. Equal values may be shown once. Where a name gives a salt, the structure may show the parent alone. Read-outs that look alike come from different tables or passages of the source.

Tests used:
[1] = tested on: rats with monocrotaline induced pulmonary arterial hypertension; test: Monocrotaline rat model for pulmonary arterial hypertension (Example 1, dosing Day 1 to 28); assay type: in vivo, Male Sprague-Dawley rats
Procedure: The studies were conducted for hemodynamic evaluation of desipramine in anesthetized sprague dawley rats treated with monocrotaline (“MCT”) to induce pulmonary arterial hypertension. Sildenafil was used as an internal control to compare the effects of desipramine.
The effects of Desipramine were evaluated in rats with monocrotaline induced pulmonary arterial hypertension using sildenafil as standard care treatment. Male Sprague-Dawley rats were orally administered vehicle, Desipramine (20 mg/kg given once daily every day for 28 days starting on Day 1), or sildenafil (100 mg/kg, administered once daily every day for 28 days starting on Day 1) (n=12 in each group). Rats received a single injection of monocrotaline (50 mg/kg, s.c.) on Study Day 1. On the twenty-eighth day following monocrotaline dosing, the rats were anesthetized with ketamine/xylazine for terminal monitoring of pulmonary and systemic arterial pressures along with heart rate.
Test Item: Vehicle (0.5% Methylcellulose+0.2% Tween 80 in deionized water. Desipramine (20 mg/kg given once daily for 28 days; Sildenafil (100 mg/kg administered once daily)
(§1) Route of Administration: Oral
Study Design: The study was planned and conducted according to design depicted below in Table 1
Pulmonary arterial hypertension was induced by injecting Monocrotaline (3 mL/Kg MCT in 50% DMSO in water) subcutaneously at a dose of 50 mg/kg of body weight to all the randomized Male Sprague-Dawley rats of Groups II, III, IV and V (except negative control group). Negative control group (Group I. DMSO group) received a single dose of 3 mL/kg 50% DMSO in water for injection subcutaneously. The positive control group (Group III) received 5 ml of vehicle every morning. The rats of desipramine group (Group IV) were orally administered Desipramine (20 mg/kg given once daily for 28 days starting on Day 1) and rats of sildenafil group (Group V) were orally administered sildenafil (100 mg/kg given once daily for 28 days starting on Day 1) On the twenty-eighth day after monocrotaline dosing, the rats were anesthetized with ketamine/xylazine for terminal monitoring of pulmonary and systemic arterial pressures along with heart rate.

[2] = tested on: rats with monocrotaline induced pulmonary arterial hypertension; test: Monocrotaline rat model for treatment of pulmonary arterial hypertension (Example 2, dosing Day 14 till Day 28); assay type: in vivo, Male Sprague-Dawley rats; conditions: for % Inhibition of Fulton index: Hypertrophy (RV/LV + S) / inhibition at 30 mg/kg: positive control = 0.00; for inhibition at 30 mg/kg: Rattus norvegicus, po
Procedure: The studies were conducted for hemodynamic evaluation of desipramnine in anesthetized Sprague Dawley rats treated with monocrotaline (“MCT”) to induce pulmonary arterial hypertension. Sildenafil was used as an internal control to compare the effects of desipramine. The effects of desipramine were evaluated in rats with monocrotaline induced pulmonary arterial hypertension using sildenafil as standard care treatment. Male Sprague-Dawley rats were orally administered vehicle, desipramine (30 mg/kg, given once daily every day starting on Day 14 till Day 28), or sildenafil (100 mg/kg, given once daily every day starting on Day 14 till Day 28) (n=12 in each group). Rats received a single injection of monocrotaline (50 mg/kg, s.c.) on Study Day 1. On the twenty-eighth day following monocrotaline dosing, the rats were anesthetized with ketamine/xylazine for terminal monitoring of pulmonary and systemic arterial pressures along with heart rate.
Test Item: Vehicle (0.5% Methylcellulose+0.2% Tween 80 in deionized water. Desipramine (30 mg/kg given once daily starting on Day 14 till Day 28; Sildenafil (100 mg/kg, administered once daily starting on Day 14 till Day 28)
as §1
Study Design: The study was planned and conducted according to design depicted below in Table 7
Pulmonary arterial hypertension was induced by injecting 50 mg/kg dose of monocrotaline (3 mL/Kg MCT in 50% DMSO in water) subcutaneously to all the randomized Male Sprague-Dawley rats of Groups VII, VII, IX and X (except negative control group). Negative control group (Group VI. DMSO group) received a single dose of 3 mL/kg 50% DMSO in water for injection subcutaneously. Male Sprague-Dawley rats in groups […], VII, VIII and IX and X were administered 50 mg/kg of body weight of monocrotaline in DMSO subcutaneously to induce PAH on day 1. The rats of vehicle positive control group (Group VIII) received 5 ml of vehicle every morning. The rats of desipramine group (Group IX) were orally administered desipramine (30 mg/kg given once daily starting on Day 14 till Day 28) and rats of sildenafil group (Group X) were orally administered dildenafil (100 mg/kg given once daily starting on Day 14 till Day 28). On the twenty-eighth day after monocrotaline dosing, the rats were anesthetized with ketamine/xylazine for terminal monitoring of pulmonary and systemic arterial pressures along with heart rate. It is understood that from day 1 till administration of test compounds i.e., until day 14, rates of all groups were suffering from PAH due to administration of MCT. Thus the study was conducted to evaluate the efficacy of desipramine treatment for PAH. Sildenafil was used as an internal control to compare the effects of desipramine.

[3] = cited from earlier work
[4] = group mean, Desipramine 20 mg/Kg p.o. QD Day 1-28, Day 28
[5] = individual animals, Desipramine 20 mg/Kg p.o. QD Day 1-28, Day 28
[6] = group mean, Desipramine 30 mg/Kg p.o. QD Day 14 till Day 28, Day 28
[7] = individual animals, Desipramine 30 mg/Kg p.o. QD Day 14 till Day 28, Day 28

With `CNCCCN1c2ccccc2CCc2ccccc21` [Desipramine] the “systolic and mean pulmonary arterial pressures compared to the vehicle group” value ([1]; after 28 days, desipramine 20 mg/kg/day once daily) was “differences”, the “activity in controlling or reducing PAH compared with Sildenafil activity” value ([1]; desipramine 20 mg/kg vs sildenafil 100 mg/kg, Day 1-28) was “comparable” and the “Fulton index: Hypertrophy (RV/LV + S), Mean” value (“Fulton index … Mean” below) [1, 4] was 0.321. For the same molecule, the “RV/Body wt (Right Ventricle/Body Weight), Mean” value [1, 4] was 0.0007, the “Right Ventricle (RV), Mean” value [1, 4] was 0.200 g and the “Right Ventricular Pressure (RVP), Mean” value [1, 4] was 16.241 mmHg. The “Right Ventricular Systolic Pressure (RVSP), Mean” value ([1]; group mean, Desipramine 20 mg/Kg p.o. QD Day 1-28, MCT 50 mg/kg s.c., Day 28) was 33.154 mmHg, the “Fulton index: Hypertrophy (RV/LV + S)” value [1, 5] was 0.292 and 0.474 and 0.274 and 0.244 and 0.286 and 0.278 and 0.426 and 0.352 and 0.263 and the “RV/Body wt (Right Ventricle/Body Weight)” value [1, 5] was 0.0005 (4×) and 0.0012 and 0.0006 (2×) and 0.0008 (2×). The “Right Ventricle (RV)” value [1, 5] was 0.171 g and 0.272 g and 0.168 g and 0.163 g and 0.169 g (2×) and 0.289 g and 0.251 g and 0.150 g, the “Right Ventricular Pressure (RVP)” value [1, 5] was 22.694 mmHg and 19.903 mmHg and 14.460 mmHg and 12.513 mmHg and 13.047 mmHg and 12.287 mmHg and 13.930 mmHg and 16.428 mmHg and 20.906 mmHg and the “Right Ventricular Systolic Pressure (RVSP)” value ([1]; individual animals, Desipramine 20 mg/Kg p.o. QD Day 1-28, MCT 50 mg/kg s.c., Day 28) was 44.096 mmHg and 40.737 mmHg and 27.834 mmHg and 26.777 mmHg and 25.403 mmHg and 26.483 mmHg and 31.091 mmHg and 37.179 mmHg and 38.785 mmHg. The “% Inhibition of Fulton index: Hypertrophy (RV/LV + S)” value ([2]; Desipramine 30 mg/Kg p.o. QD Day 14 till Day 28) was 32.07%, the inhibition at 30 mg/kg ([2]; Desipramine 30 mg/Kg p.o. QD Day 14 till Day 28, read-out: % Inhibition of Right Ventricular Pressure (RVP)) was 53.9% and the inhibition at 30 mg/kg ([2]; Desipramine 30 mg/Kg p.o. QD Day 14 till Day 28, read-out: % Inhibition of Right Ventricular Systolic Pressure (RVSP)) was 51.6%. For the same molecule, the “systolic and mean pulmonary arterial pressures compared to the vehicle group” value ([2]; after 28 days, desipramine 30 mg/kg/day once daily, Day 14 till Day 28) was “differences”, the “activity in treatment of PAH compared with Sildenafil activity” value ([2]; desipramine 30 mg/kg vs sildenafil 100 mg/kg, Day 14 till Day 28) was “comparable” and the “Fulton index … Mean” value [2, 6] was 0.376. The “Right Ventricle weight, Mean” value [2, 6] was 0.250 gms, the “Right Ventricular Pressure (RVP), Mean” value [2, 6] was 15.796 mmHg and the “Right Ventricular Systolic Pressure (RVSP), Mean” value [2, 6] was 33.248 mmHg. For the same molecule, the “Right ventricle/Body weight, Mean” value [2, 6] was 0.0007, the “Fulton index: Hypertrophy (RV/LV + S)” value [2, 7] was 0.404 and 0.426 and 0.430 and 0.333 and 0.288 and the “Right Ventricle weight” value [2, 7] was 0.252 gms and 0.274 gms and 0.340 gms and 0.205 gms and 0.181 gms. For the same molecule, the “Right Ventricular Pressure (RVP)” value [2, 7] was 14.133 mmHg and 19.618 mmHg and 19.346 mmHg and 15.432 mmHg and 10.448 mmHg, the “Right ventricle/Body weight” value [2, 7] was 0.0008 (2×) and 0.0010 and 0.0006 and 0.0005 and the “Right Ventricular Systolic Pressure (RVSP)” value ([2]; individual animals, Desipramine 30 mg/Kg p.o. QD Day 14 till Day 28, MCT 50 mg/kg s.c., Day 28) was 30.245 mmHg and 39.927 mmHg and 38.672 mmHg and 32.210 mmHg and 25.188 mmHg.
In the case of `CNCCCN1c2ccccc2CCc2ccccc21` [Desipramine hydrochloride], the “time at which peak plasma concentrations are attained” value ([3]; following oral administration) is given as 4 to 6 h, the “absorption from the gastrointestinal tract” value ([3]; in vivo) is given as “rapidly and almost completely absorbed” and the first-pass metabolism ([3]; in vivo) is given as “extensive”.
For `CCCc1nn(C)c2c(=O)[nH]c(-c3cc(S(=O)(=O)N4CCN(C)CC4)ccc3OCC)nc12` [Sildenafil], the “RV/Body wt (Right Ventricle/Body Weight), Mean” value ([1]; group mean, Sildenafil 100 mg/kg p.o. QD Day 1-28, Day 28) was 0.0006, the “RV/Body wt (Right Ventricle/Body Weight)” value ([1]; individual animals, Sildenafil 100 mg/kg p.o. QD Day 1-28, Day 28) was 0.0009 and 0.0006 (4×) and 0.0007 (3×) and 0.0003 and the “% Inhibition of Fulton index: Hypertrophy (RV/LV + S)” value ([2]; Sildenafil 100 mg/Kg p.o. QD Day 14 till Day 28) was 30.70%. For the same molecule, the “Fulton index … Mean” value ([2]; group mean, Sildenafil 100 mg/Kg p.o. QD Day 14 till Day 28, Day 28) was 0.384 and the “Fulton index: Hypertrophy (RV/LV + S)” value ([2]; individual animals, Sildenafil 100 mg/Kg p.o. QD Day 14 till Day 28, Day 28) was 0.393 and 0.306 and 0.337 and 0.389 and 0.415 and 0.464.
